Assay in all cases: PK/LDH coupled NADH oxidation assay, […] nm
Holding throughout (format): biochemical

In one assay the target is T1, OtsA(Sco) (Streptomyces coelicolor, UniProt Q9KXV1).
T1 sequence (Q9KXV1 1-462): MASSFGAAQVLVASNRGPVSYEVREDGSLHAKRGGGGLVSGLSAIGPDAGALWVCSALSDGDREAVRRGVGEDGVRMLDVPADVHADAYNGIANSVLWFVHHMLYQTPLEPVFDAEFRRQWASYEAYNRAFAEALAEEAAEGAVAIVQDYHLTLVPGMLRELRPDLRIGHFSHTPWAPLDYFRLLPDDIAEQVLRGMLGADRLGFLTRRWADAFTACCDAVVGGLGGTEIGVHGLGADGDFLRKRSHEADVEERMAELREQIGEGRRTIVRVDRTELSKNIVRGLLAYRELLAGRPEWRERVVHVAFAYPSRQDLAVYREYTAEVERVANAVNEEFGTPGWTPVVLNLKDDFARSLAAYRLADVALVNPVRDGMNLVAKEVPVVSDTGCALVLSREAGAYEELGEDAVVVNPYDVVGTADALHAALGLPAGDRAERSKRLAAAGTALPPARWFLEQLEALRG
The conditions noted are these: 5 mM MgCl2, Tris-HCl pH 7.5.

The next assay concerns the target VldE (Streptomyces hygroscopicus, UniProt Q15JG1). The conditions noted are these: 2 mM validamine 7-phosphate, 5 mM MgCl2, Tris-HCl pH 7.5.
A further assay relates to Chimera-2. The conditions noted are these: 5 mM MgCl2, Tris-HCl pH 7.5.
A further assay deals with Chimera-1. The conditions noted are these: 5 mM MgCl2, Tris-HCl pH 7.5.

By Km is commonly meant the substrate concentration at which the rate is half of its maximum.

Sequence of VldE (Q15JG1 whole entry): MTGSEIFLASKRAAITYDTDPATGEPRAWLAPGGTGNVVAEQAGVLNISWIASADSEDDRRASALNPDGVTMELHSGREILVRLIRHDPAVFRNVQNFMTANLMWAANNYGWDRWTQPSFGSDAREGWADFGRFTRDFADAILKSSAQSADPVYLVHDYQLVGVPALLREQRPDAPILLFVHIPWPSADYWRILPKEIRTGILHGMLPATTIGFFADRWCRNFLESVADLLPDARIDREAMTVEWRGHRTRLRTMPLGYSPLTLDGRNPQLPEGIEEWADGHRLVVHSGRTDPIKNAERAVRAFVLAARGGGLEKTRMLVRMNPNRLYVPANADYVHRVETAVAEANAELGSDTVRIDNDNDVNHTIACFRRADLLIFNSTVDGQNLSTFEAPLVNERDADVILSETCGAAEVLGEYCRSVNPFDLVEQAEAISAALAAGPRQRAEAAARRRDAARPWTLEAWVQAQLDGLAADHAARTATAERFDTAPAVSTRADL

Consider `Nc1ccn([C@@H]2O[C@H](COP(=O)(O)OP(=O)(O)O[C@H]3O[C@H](CO)[C@@H](O)[C@H](O)[C@H]3O)[C@@H](O)[C@H]2O)c(=O)n1` [CDP-glucose], for which the Km at OtsA(Sco) (2 mM glucose 6-phosphate) is above 4 mM. Regarding `Nc1nc2c(ncn2[C@@H]2O[C@H](COP(=O)(O)OP(=O)(O)O[C@H]3O[C@H](CO)[C@@H](O)[C@H](O)[C@H]3O)[C@@H](O)[C@H]2O)c(=O)[nH]1` [GDP-glucose], the Km is above 2.2 mM at VldE, 3.56 ± 0.38 mM with Chimera-2 (2 mM glucose 6-phosphate) and 1.1 ± 0.07 mM in the assay with Chimera-1 (2 mM validamine 7-phosphate). For the molecule `Nc1nc2c(ncn2[C@@H]2O[C@H](COP(=O)(O)OP(=O)(O)O[C@H]3C=C(CO)[C@@H](O)[C@H](O)[C@H]3O)[C@@H](O)[C@H]2O)c(=O)[nH]1` [GDP-valienol], the Km in the assay on Chimera-1 (2 mM validamine 7-phosphate) was above 10 mM. Take `O=P(O)(O)OC[C@H]1OC(O)[C@H](O)[C@@H](O)[C@@H]1O` (stereo partly drawn) [glucose 6-phosphate]: the Km in the assay on Chimera-2 (2 mM GDP-glucose) came to 6.44 ± 0.95 mM.

Turning to `N[C@H]1C[C@H](COP(=O)(O)O)[C@@H](O)[C@H](O)[C@H]1O` [validamine 7-phosphate], the Km in the assay on Chimera-1 (2 mM GDP-glucose) is 0.975 ± 0.1 mM.

As for `O=P(O)(O)OC[C@H]1C[C@H](O)[C@H](O)[C@@H](O)[C@@H]1O` [validol 7-phosphate], the Km in the assay with Chimera-2 (2 mM GDP-glucose) is 4.95 ± 0.7 mM; at OtsA(Sco) (2 mM GDP-glucose) it was above 10 mM.

The record behind these values is publication PMC4475420 (Chemistry & biology, 2015).
